Laboratory results taken from patent US11981677B2, “Further substituted triazolo quinoxaline derivatives” (Grünenthal GmbH, priority 2018, dated 2024).

These compounds were tested against T1, Glucocorticoid Receptor (Homo sapiens, UniProt P04150) (assay: Agonistic mode of action on the glucocorticoid receptor (CHO-Gal4/GR luciferase reporter cell line)). Details: CHO-Gal4/GR luciferase reporter cells; observed in the agonistic assay or the antagonistic assay (mode not given); read-out: IC50 or EC50 range.
T1 construct: expressed in transfected cells
T1 sequence (P04150 524-758 limits assumed): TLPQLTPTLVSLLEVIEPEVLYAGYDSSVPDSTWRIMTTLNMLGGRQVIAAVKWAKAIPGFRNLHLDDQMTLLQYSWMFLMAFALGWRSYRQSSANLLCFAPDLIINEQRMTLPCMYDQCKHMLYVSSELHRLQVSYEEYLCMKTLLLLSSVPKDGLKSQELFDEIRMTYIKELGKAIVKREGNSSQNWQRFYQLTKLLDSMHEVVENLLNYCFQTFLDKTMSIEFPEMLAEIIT
Assay type: cell-based
Procedure, shortened: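 CHO cells stably expressing GAL4 DBD–GR ligand-binding domain fusion with GAL4-UAS firefly luciferase reporter, seeded 24 h, then treated in Opti-MEM with 8 half-log concentrations from 10 μM to 0.003 μM (0.5% DMSO), quadruplicate. Luminescence read on FLIPR after lysis with Triton/luciferin; EC50 calculated.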

COc1c(-c2cccc3c2ccn3S(=O)(=O)C2CC2)cc(F)c2c1-n1c(C)nnc1C(C)(C)N2 [Example 505, 8-[1-(Cyclopropylsulfonyl)-1H-indol-4-yl]-6-fluoro-9-methoxy-1,4,4-trimethyl-5H-[1,2,4]triazolo[4,3-a]quinoxaline] and COc1c(-c2cccc3c2ccn3C2CC2)cc(F)c2c1-n1c(C)nnc1C(C)(C)N2 [Example 511, 8-(1-Cyclopropyl-1H-indol-4-yl)-6-fluoro-9-methoxy-1,4,4-trimethyl-5H-[1,2,4]triazolo[4,3-a]quinoxaline] fall in the same range of IC50 or EC50 (antagonist or agonist mode, not stated per compound): 0.1 to 1 µM for the first, 0.1 to 1 µM for the second.

Cc1c(-c2cc(Cl)cc3[nH]ccc23)cc(F)c2c1-n1c(C)nnc1C(C)(C)N2 [Example 506, 8-(6-Chloro-1H-indol-4-yl)-6-fluoro-1,4,4,9-tetramethyl-5H-[1,2,4]triazolo[4,3-a]quinoxaline] and Cc1c(-c2ccc(F)c3[nH]ncc23)cc(F)c2c1-n1c(C)nnc1C(C)(C)N2 [Example 517, 6-Fluoro-8-(7-fluoro-1H-indazol-4-yl)-1,4,4,9-tetramethyl-5H-[1,2,4]triazolo[4,3-a]quinoxaline] fall in the same range of IC50 or EC50 (antagonist or agonist mode, not stated per compound): 0.1 to 1 µM for the first, 0.1 to 1 µM for the second.

Cc1c(-c2cc(C(F)(F)F)cc3[nH]ncc23)cc(F)c2c1-n1c(C)nnc1C(C)(C)N2 [Example 507, 6-Fluoro-1,4,4,9-tetramethyl-8-[6-(trifluoromethyl)-1H-indazol-4-yl]-5H-[1,2,4]triazolo[4,3-a]quinoxaline] and COc1c(-c2cc(F)cc3cc[nH]c23)cc(F)c2c1-n1c(C)nnc1C(C)(C)N2 [Example 515, 6-Fluoro-8-(5-fluoro-1H-indol-7-yl)-9-methoxy-1,4,4-trimethyl-5H-[1,2,4]triazolo[4,3-a]quinoxaline] fall in the same range of IC50 or EC50 (antagonist or agonist mode, not stated per compound): 0.1 to 1 µM for the first, 0.1 to 1 µM for the second.

First: Cc1c(-c2cc(F)cc3c(C)c[nH]c23)c(F)c(Cl)c2c1-n1c(C)nnc1C(C)(C)N2 [Example 508, 6-Chloro-7-fluoro-8-(5-fluoro-3-methyl-1H-indol-7-yl)-1,4,4,9-tetramethyl-5H-[1,2,4]triazolo[4,3-a]quinoxaline]
Second: Cc1c(-c2cc(F)cc3c(C)c[nH]c23)c(Cl)c(F)c2c1-n1c(C)nnc1C(C)(C)N2 [Example 526, 7-Chloro-6-fluoro-8-(5-fluoro-3-methyl-1H-indol-7-yl)-1,4,4,9-tetramethyl-5H-[1,2,4]triazolo[4,3-a]quinoxaline]
The IC50 or EC50 (antagonist or agonist mode, not stated per compound) of the first is higher: 0.1 to 1 µM for the first, < 0.1 µM for the second.

Cc1c(-c2cccc3c2cnn3S(C)(=O)=O)c(F)c(Cl)c2c1-n1c(C)nnc1C(C)(C)N2 [Example 509, 6-Chloro-7-fluoro-1,4,4,9-tetramethyl-8-(1-methylsulfonyl-1H-indazol-4-yl)-5H-[1,2,4]triazolo[4,3-a]quinoxaline] and Cc1c(-c2cccc3c2cnn3S(C)(=O)=O)c(Cl)c(F)c2c1-n1c(C)nnc1C(C)(C)N2 [Example 527, 7-Chloro-6-fluoro-1,4,4,9-tetramethyl-8-(1-methylsulfonyl-1H-indazol-4-yl)-5H-[1,2,4]triazolo[4,3-a]quinoxaline] fall in the same range of IC50 or EC50 (antagonist or agonist mode, not stated per compound): 0.1 to 1 µM for the first, 0.1 to 1 µM for the second.

Cc1c(-c2cc(F)cc3c2cnn3S(C)(=O)=O)c(F)c(Cl)c2c1-n1c(C)nnc1C(C)(C)N2 [Example 510, 6-Chloro-7-fluoro-8-(6-fluoro-1-methylsulfonyl-1H-indazol-4-yl)-1,4,4,9-tetramethyl-5H-[1,2,4]triazolo[4,3-a]quinoxaline] and Cc1c(-c2cc(F)cc3c2cnn3S(C)(=O)=O)c(Cl)c(F)c2c1-n1c(C)nnc1C(C)(C)N2 [Example 525, 7-Chloro-6-fluoro-8-(6-fluoro-1-methylsulfonyl-1H-indazol-4-yl)-1,4,4,9-tetramethyl-5H-[1,2,4]triazolo[4,3-a]quinoxaline] cannot be ordered by IC50 or EC50 (antagonist or agonist mode, not stated per compound): < 0.1 µM for the first, < 0.1 µM for the second.

First: Cc1c(-c2cccc3[nH]ccc23)c(F)c(F)c2c1-n1c(C)nnc1C(C)(C)N2 [Example 512, 6,7-Difluoro-8-(1H-indol-4-yl)-1,4,4,9-tetramethyl-5H-[1,2,4]triazolo[4,3-a]quinoxaline]
Second: Cc1c(-c2ccc(C#N)c3[nH]ccc23)c(F)c(F)c2c1-n1c(C)nnc1C(C)(C)N2 [Example 520, 4-(6,7-difluoro-1,4,4,9-tetramethyl-4,5-dihydro-[1,2,4]triazolo[4,3-a]quinoxalin-8-yl)-1H-indole-7-carbonitrile]
The IC50 or EC50 (antagonist or agonist mode, not stated per compound) of the first is lower: < 0.1 µM for the first, 0.1 to 1 µM for the second.

First: Cc1c(-c2cccc3c(C)c[nH]c23)c(F)c(F)c2c1-n1c(C)nnc1C(C)(C)N2 [Example 513, 6,7-Difluoro-1,4,4,9-tetramethyl-8-(3-methyl-1H-indol-7-yl)-5H-[1,2,4]triazolo[4,3-a]quinoxaline]
Second: Cc1c(-c2cc(F)cc3c(C)c[nH]c23)c(F)c(F)c2c1-n1c(C)nnc1C(C)(C)N2 [Example 514, 6,7-Difluoro-8-(5-fluoro-3-methyl-1H-indol-7-yl)-1,4,4,9-tetramethyl-5H-[1,2,4]triazolo[4,3-a]quinoxaline]
The IC50 or EC50 (antagonist or agonist mode, not stated per compound) of the first is higher: 0.1 to 1 µM for the first, < 0.1 µM for the second.

First: Cc1nnc2n1-c1c(c(F)c(F)c(-c3cc(F)cc4[nH]ccc34)c1C(F)(F)F)NC2(C)C [Example 516, 6,7-Difluoro-8-(6-fluoro-1H-indol-4-yl)-1,4,4-trimethyl-9-(trifluoromethyl)-5H-[1,2,4]triazolo[4,3-a]quinoxaline]
Second: Cc1nnc2n1-c1c(c(F)c(F)c(-c3cc(F)cc4c3ccn4S(C)(=O)=O)c1C(F)(F)F)NC2(C)C [Example 518, 6,7-difluoro-8-(6-fluoro-1-(methylsulfonyl)-1H-indol-4-yl)-1,4,4-trimethyl-9-(trifluoromethyl)-4,5-dihydro-[1,2,4]triazolo[4,3-a]quinoxaline]
The IC50 or EC50 (antagonist or agonist mode, not stated per compound) of the first is lower: < 0.1 µM for the first, 0.1 to 1 µM for the second.

First: Cc1nnc2n1-c1c(c(F)c(F)c(-c3cc(F)cc4c3cnn4S(C)(=O)=O)c1C(F)(F)F)NC2(C)C [Example 519, 6,7-Difluoro-8-(6-fluoro-1-methylsulfonyl-1H-indazol-4-yl)-1,4,4-trimethyl-9-(trifluoromethyl)-5H-[1,2,4]triazolo[4,3-a]quinoxaline]
Second: Cc1c(-c2cc(F)cc3c2ccn3C)c(F)c(F)c2c1-n1c(C)nnc1C(C)(C)N2 [Example 521, 6,7-Difluoro-8-(6-fluoro-1-methyl-1H-indol-4-yl)-1,4,4,9-tetramethyl-5H-[1,2,4]triazolo[4,3-a]quinoxaline]
The IC50 or EC50 (antagonist or agonist mode, not stated per compound) of the first is higher: 0.1 to 1 µM for the first, < 0.1 µM for the second.

COc1cc(-c2c(C)c3c(c(F)c2F)NC(C)(C)c2nnc(C)n2-3)c2ccn(S(C)(=O)=O)c2c1 [Example 522, 6,7-Difluoro-8-(6-methoxy-1-methylsulfonyl-1H-indol-4-yl)-1,4,4,9-tetramethyl-5H-[1,2,4]triazolo[4,3-a]quinoxaline] and COc1cc(-c2cc(F)c3c(c2C)-n2c(C)nnc2C(C)(C)N3)c2ccn(S(C)(=O)=O)c2c1 [Example 523, 6-Fluoro-8-(6-methoxy-1-methylsulfonyl-1H-indol-4-yl)-1,4,4,9-tetramethyl-5H-[1,2,4]triazolo[4,3-a]quinoxaline] fall in the same range of IC50 or EC50 (antagonist or agonist mode, not stated per compound): 0.1 to 1 µM for the first, 0.1 to 1 µM for the second.

COc1cc(-c2cc(F)c3c(c2OC)-n2c(C)nnc2C(C)(C)N3)c2ccn(S(C)(=O)=O)c2c1 [Example 524, 6-Fluoro-9-methoxy-8-(6-methoxy-1-methylsulfonyl-1H-indol-4-yl)-1,4,4-trimethyl-5H-[1,2,4]triazolo[4,3-a]quinoxaline] was tested, and the IC50 or EC50 (antagonist or agonist mode, not stated per compound) was 0.1 to 1 µM.
